How the values were obtained:
Methionine--tRNA ligase [1] = target: T1, Methionine--tRNA ligase (Staphylococcus aureus (strain Mu50 / ATCC 700699), UniProt P67578); test: Inhibition of Staphylococcus aureus MetRS expressed in Escherichia coli BL21(DE3) cells measured after 2.5 hrs in presence of ATP by pre-transfer editing assay
Methionine--tRNA ligase [2] = target: T2, Methionine--tRNA ligase (Enterococcus faecalis, UniProt A0A3N3ZFK4); test: Binding affinity to Enterococcus faecalis type 1 MetRS expressed in Escherichia coli BL21(DE3) cells assessed as dissociation constant by ITC analysis
T2 sequence (A0A3N3ZFK4 whole entry): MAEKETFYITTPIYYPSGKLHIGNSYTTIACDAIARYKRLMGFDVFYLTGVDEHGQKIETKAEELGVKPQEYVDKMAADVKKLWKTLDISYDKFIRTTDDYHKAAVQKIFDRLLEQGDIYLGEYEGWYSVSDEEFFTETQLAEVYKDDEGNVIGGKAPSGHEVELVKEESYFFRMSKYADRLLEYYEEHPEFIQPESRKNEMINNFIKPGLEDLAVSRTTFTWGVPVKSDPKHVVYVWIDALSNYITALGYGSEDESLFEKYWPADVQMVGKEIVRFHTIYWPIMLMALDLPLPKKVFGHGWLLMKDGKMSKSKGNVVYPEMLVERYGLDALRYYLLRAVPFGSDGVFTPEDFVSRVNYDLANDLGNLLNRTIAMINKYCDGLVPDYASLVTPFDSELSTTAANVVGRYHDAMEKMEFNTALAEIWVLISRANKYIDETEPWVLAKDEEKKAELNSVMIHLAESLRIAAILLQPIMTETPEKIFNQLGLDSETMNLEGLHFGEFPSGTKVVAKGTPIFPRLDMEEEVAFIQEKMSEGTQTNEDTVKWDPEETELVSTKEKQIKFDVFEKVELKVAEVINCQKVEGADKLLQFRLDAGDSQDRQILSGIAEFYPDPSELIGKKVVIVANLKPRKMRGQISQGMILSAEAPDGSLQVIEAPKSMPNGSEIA

Methionine--tRNA ligase [3] = target: T2, Methionine--tRNA ligase; test: Binding affinity to Enterococcus faecalis type 1 MetRS expressed in Escherichia coli BL21(DE3) cells assessed as dissociation constant in presence of 1 mM ATP by ITC analysis
Methionine--tRNA ligase [4] = target: T1, Methionine--tRNA ligase; test: Binding affinity to Staphylococcus aureus MetRS expressed in Escherichia coli BL21(DE3) cells assessed as dissociation constant in presence of 50 uM ATP by ITC analysis
Methionine--tRNA ligase [5] = target: T1, Methionine--tRNA ligase; test: Binding affinity to Staphylococcus aureus MetRS expressed in Escherichia coli BL21(DE3) cells assessed as dissociation constant in presence of 1 mM ATP by ITC analysis
Methionine--tRNA ligase [6] = target: T2, Methionine--tRNA ligase; test: Inhibition of Enterococcus faecalis type 1 MetRS expressed in Escherichia coli BL21(DE3) cells measured after 1.5 hrs in presence of ATP by pre-transfer editing assay
Methionine--tRNA ligase [7] = target: T1, Methionine--tRNA ligase; test: Binding affinity to Staphylococcus aureus MetRS expressed in Escherichia coli BL21(DE3) cells assessed as dissociation constant in presence of 20 uM ATP by ITC analysis
Methionine--tRNA ligase [8] = target: T1, Methionine--tRNA ligase; test: Binding affinity to Staphylococcus aureus MetRS expressed in Escherichia coli BL21(DE3) cells assessed as dissociation constant by ITC analysis
[9] = target: Methionine--tRNA ligase (Staphylococcus aureus (strain Mu50 / ATCC 700699)) (UniProt P67578); test: Inhibition of Staphylococcus aureus MetRS expressed in Escherichia coli BL21(DE3) cells at 100 uM measured after 2.5 hrs in presence of ATP by pre-transfer editing assay relative to control
Methionine--tRNA ligase (Staphylococcus aureus (strain Mu50 / ATCC 700699)), sequence (P67578 whole entry): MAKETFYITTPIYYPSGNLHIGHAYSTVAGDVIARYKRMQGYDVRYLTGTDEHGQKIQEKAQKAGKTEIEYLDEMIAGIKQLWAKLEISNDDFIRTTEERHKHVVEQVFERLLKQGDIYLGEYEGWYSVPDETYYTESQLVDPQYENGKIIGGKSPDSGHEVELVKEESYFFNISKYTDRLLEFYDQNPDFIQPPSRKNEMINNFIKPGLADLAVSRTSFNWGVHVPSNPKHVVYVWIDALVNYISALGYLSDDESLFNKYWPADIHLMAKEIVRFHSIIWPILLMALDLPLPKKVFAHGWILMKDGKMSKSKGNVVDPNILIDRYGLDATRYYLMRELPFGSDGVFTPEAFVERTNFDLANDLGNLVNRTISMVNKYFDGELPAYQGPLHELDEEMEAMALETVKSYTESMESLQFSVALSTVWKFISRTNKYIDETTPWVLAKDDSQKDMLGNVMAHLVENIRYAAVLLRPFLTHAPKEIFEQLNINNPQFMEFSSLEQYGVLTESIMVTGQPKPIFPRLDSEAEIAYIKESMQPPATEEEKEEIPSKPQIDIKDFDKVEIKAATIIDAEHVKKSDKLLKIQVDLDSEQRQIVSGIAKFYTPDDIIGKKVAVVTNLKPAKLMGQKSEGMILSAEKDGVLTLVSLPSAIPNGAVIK

[10] = target: Methionine--tRNA ligase (Staphylococcus aureus (strain Mu50 / ATCC 700699)) (UniProt P67578); test: Binding affinity to Staphylococcus aureus MetRS expressed in Escherichia coli BL21(DE3) cells assessed as change in melting temperature at 100 uM incubated for 10 mins followed by heat treatment in presence of 2 mM ATP by SYPRO orange dye based TSA (reference value: 56.4 degreeC)
[11] = target: Methionine--tRNA ligase (Staphylococcus aureus (strain Mu50 / ATCC 700699)) (UniProt P67578); test: Binding affinity to Staphylococcus aureus MetRS expressed in Escherichia coli BL21(DE3) cells assessed as change in melting temperature at 100 uM incubated for 10 mins followed by heat treatment by SYPRO orange dye based TSA (reference value: 53.7 degreeC)
[12] = target: Methionine--tRNA ligase (Staphylococcus aureus (strain Mu50 / ATCC 700699)) (UniProt P67578); test: Binding affinity to Staphylococcus aureus MetRS expressed in Escherichia coli BL21(DE3) cells assessed as change in entropy by ITC analysis
[13] = target: Methionine--tRNA ligase (Staphylococcus aureus (strain Mu50 / ATCC 700699)) (UniProt P67578); test: Binding affinity to Staphylococcus aureus MetRS expressed in Escherichia coli BL21(DE3) cells assessed as change in entropy in presence of 50 uM ATP by ITC analysis
[14] = target: Methionine--tRNA ligase (Staphylococcus aureus (strain Mu50 / ATCC 700699)) (UniProt P67578); test: Binding affinity to Staphylococcus aureus MetRS expressed in Escherichia coli BL21(DE3) cells assessed as change in enthalpy in presence of 1 mM ATP by ITC analysis
[15] = target: Methionine--tRNA ligase (Staphylococcus aureus (strain Mu50 / ATCC 700699)) (UniProt P67578); test: Binding affinity to Staphylococcus aureus MetRS expressed in Escherichia coli BL21(DE3) cells assessed as change in Gibbs free energy by ITC analysis
[16] = target: Methionine--tRNA ligase (Staphylococcus aureus (strain Mu50 / ATCC 700699)) (UniProt P67578); test: Binding affinity to Staphylococcus aureus MetRS expressed in Escherichia coli BL21(DE3) cells assessed as change in entropy in presence of 1 mM ATP by ITC analysis
[17] = target: Methionine--tRNA ligase (Staphylococcus aureus (strain Mu50 / ATCC 700699)) (UniProt P67578); test: Binding affinity to Staphylococcus aureus MetRS expressed in Escherichia coli BL21(DE3) cells assessed as change in enthalpy by ITC analysis
[18] = target: Methionine--tRNA ligase (Staphylococcus aureus (strain Mu50 / ATCC 700699)) (UniProt P67578); test: Binding affinity to Staphylococcus aureus MetRS expressed in Escherichia coli BL21(DE3) cells assessed as change in Gibbs free energy in presence of 1 mM ATP by ITC analysis
[19] = target: Methionine--tRNA ligase (Staphylococcus aureus (strain Mu50 / ATCC 700699)) (UniProt P67578); test: Binding affinity to Staphylococcus aureus MetRS expressed in Escherichia coli BL21(DE3) cells assessed as change in Gibbs free energy in presence of 50 uM ATP by ITC analysis
[20] = target: Methionine--tRNA ligase (Staphylococcus aureus (strain Mu50 / ATCC 700699)) (UniProt P67578); test: Binding affinity to Staphylococcus aureus MetRS expressed in Escherichia coli BL21(DE3) cells assessed as change in entropy in presence of 20 uM ATP by ITC analysis
[21] = target: Methionine--tRNA ligase (Staphylococcus aureus (strain Mu50 / ATCC 700699)) (UniProt P67578); test: Binding affinity to Staphylococcus aureus MetRS expressed in Escherichia coli BL21(DE3) cells assessed as change in enthalpy in presence of 20 uM ATP by ITC analysis
[22] = target: Methionine--tRNA ligase (Staphylococcus aureus (strain Mu50 / ATCC 700699)) (UniProt P67578); test: Binding affinity to Staphylococcus aureus MetRS expressed in Escherichia coli BL21(DE3) cells assessed as change in Gibbs free energy in presence of 20 uM ATP by ITC analysis
[23] = target: Methionine--tRNA ligase (Staphylococcus aureus (strain Mu50 / ATCC 700699)) (UniProt P67578); test: Binding affinity to Staphylococcus aureus MetRS expressed in Escherichia coli BL21(DE3) cells assessed as change in enthalpy in presence of 50 uM ATP by ITC analysis
[24] = target: Methionine--tRNA ligase (Staphylococcus aureus (strain Mu50 / ATCC 700699)) (UniProt P67578); test: Binding affinity to Staphylococcus aureus MetRS expressed in Escherichia coli BL21(DE3) cells assessed as thermal stability by measuring change in melting temperature incubated for 10 mins followed by heat treatment in presence of 2 mM ATP by SYPRO orange dye based TSA

T1 sequence (P67578 whole entry): as above

## [H]/N=C(/NCCCCN/C(=N/[H])N/C(=N/[H])Nc1ccc(Cl)cc1)N/C(=N/[H])Nc1ccc(Cl)cc1
Methionine--tRNA ligase [1]
  IC50: 17.3 µM
Methionine--tRNA ligase [2]
  Kd: 2.7 µM
Methionine--tRNA ligase [3]
  Kd: 0.15 µM
Methionine--tRNA ligase [4]
  Kd: 0.493 µM
Methionine--tRNA ligase [5]
  Kd: 0.452 µM
Methionine--tRNA ligase [6]
  IC50: 16.1 µM
Methionine--tRNA ligase [7]
  Kd: 1.37 µM
Methionine--tRNA ligase [8]
  Kd: 4.92 µM

## C=C(F)c1sc(CNCCCNc2cc(=O)c3ccccc3[nH]2)c(C)c1Br
[9]
  inhibition: > 99%
[10]
  ΔTm: 20.3 °C
[11]
  ΔTm: 16.2 °C

## CCN(CC)CCCC(C)Nc1ccnc2cc(Cl)ccc12 (configuration not stated)
[9]
  inhibition: < 20%
[10]
  ΔTm: 1.1 °C
[11]
  ΔTm: -0.1 °C

## N=C(NCCCCNC(=N)NC(=N)Nc1ccc(Cl)cc1)NC(=N)Nc1ccc(Cl)cc1
[12]
  -TdeltaS: 1.94 kcal/mol
[13]
  -TdeltaS: 7.28 kcal/mol
[14]
  deltaH: -14.4 kcal/mol
[15]
  deltaG: -7.24 kcal/mol
[16]
  -TdeltaS: 6.23 kcal/mol
[17]
  deltaH: -8.62 kcal/mol
[18]
  deltaG: -8.7 kcal/mol
[19]
  deltaG: -8.61 kcal/mol
[20]
  -TdeltaS: 11.3 kcal/mol
[21]
  deltaH: -18 kcal/mol
[22]
  deltaG: -8 kcal/mol
[23]
  deltaH: -15.7 kcal/mol
[24]
  ΔTm: 9 °C
